For series [1] the following is noted: in ethanol; cited from earlier work.
The nature of series [2]: UV-Vis absorbance spectra in variable pH PBS buffer solutions. In kind it is physicochemical. The note with it: pH 7.4, 7.0, 6.8, 6.5. The procedure:
Substantial differences were observed between pH 7.4 and pH 7.0 (B), pH 7.0 and 6.8 (C). A small additional peak was observed between pH 6.8 and 6.5 (D). This initial identification of the ability of compound (Ia) to modulate absorbance spectra was solely dependent upon variation in pH as changes in absorbance in various light conditions, various levels of 02, and various cell culture medium (with and without phenol red) (data not shown) were also tested.

A short description of series [3]: Quantum yield and spectral properties in buffered solutions, by comparison with rhodamine. In kind it is physicochemical. The note with it: for ΦF (quantum yield): vs rhodamine. How it is done:
The quantum yield of compound (Ia) under acidic (pH 6.0), neutral (7.0), and basic (pH 8.0) buffered solutions were calculated by comparison with rhodamine (ΦR=0.95 in ethanol), where ΦF is the quantum yield.

A short description of series [4]: Absorption spectra in the presence of ions and reactive cellular products at pH 7.4. In kind it is physicochemical. As to conditions: Na+, K+, Ca2+, Fe2+, Mg2+, Zn2+, Fe3+ chloride salts, H2O2, GSH, cysteine. How it is done:
Since compound (Ia) was designed to spectrally alter based upon H^+ protonation, compound (Ia) was also evaluated in the presence of de-ionized water, phosphate buffer saline, and/or other ions which are present in living organisms (Na^+, K^+, Ca^2+, Fe^2+, Mg^2+, Zn^2+, Fe^3+ and Fe^2+ as chloride salts), and other highly reactive cellular products (H2O2, glutathione (GSH), cysteine) at pH 7.4. […] With the establishment that modulation of spectral absorption corresponded to H^+ without influence of other ions, compound (Ia) was further evaluated as a potential optoacoustic agent.

In series [5] the test system is orthotopic pancreatic tumor. Kind of series: MSOT imaging of compound accumulation in mice with orthotopic pancreatic tumor. In kind it is in vivo. The note with it: SCID mice, iv tail vein, 100 nM in PBS pH 7.4, 100 μl; after 2 h. How it is done: Preliminary evaluation of compound (Ia) accumulation within mice was conducted. A matrigel plug containing surgicel mesh and fibroblast was injected subcutaneously to stimulate non-malignant fibrotic tissue two weeks prior to orthotopic tumor implantation in 3 SCID mice. Mice were anesthesized using 1.5% isoflurane and a gas mixture of 0.9 L medical air and 0.1 L 02 to detect tissue hypoxia. Because areas of tissue hypoxia will also have acidic extracellular pH, tissue hypoxia served as an additional acidic extracellular pH (pHe) control. One week post tumor implantation mice were imaged using MSOT to obtain a baseline prior to iv tail vein injection of compound (Ia) at (100 nM in PBS pH 7.4) in 100 μl total volume.

Setting [6] is: pH 6.0 (acidic) buffered solution.
Where [7] appears, read: pH 7.0 (neutral) buffered solution.
The mark [8] stands for this setting: pH 8.0 (basic) buffered solution.

This is an account of results in patent US20210309645A1, “pH DEPENDENT PHOTOACOUSTIC COMPOUNDS AND APPLICATIONS THEREOF” (Wake Forest University, priority 2018, published 2021).

Turning to rhodamine, the “ΦR (quantum yield of reference)” value in series [1] is 0.95.
Consider `C[N+]1=C(/C=C/C2=C3Oc4cc(O)ccc4C=C3CCC2)C(C)(C)c2c1ccc1c2ccc2cc(Cl)ccc21` [compound (Ia)], for which the “pH dependence of absorbance spectra (UV-Vis)” value in series [2] is “absorbance spectra modulation corresponding with variable pH PBS buffer solutions”. In series [3] (setting [6]), the Absmax came out at 652 nm, the Emmax was 694 nm and the “ΦF (quantum yield)” value stood at 0.18. For the same compound, in series [3] (setting [7]), the Absmax was 704 nm, the Emmax is recorded as 745 nm and the “ΦF (quantum yield)” value was determined as 0.22. In series [3] (setting [8]), the Absmax is listed as 765 nm, the Emmax amounted to 810 nm and the “ΦF (quantum yield)” value came out at 0.23. The “change of absorption spectra in the presence of other ions and reactive cellular products” value in series [4] is on record as “did not significantly alter”. The “accumulation detected by MSOT” value in series [5] is given as “Pancreatic tumor specific accumulation”.
